Test results from patent US20050244829A1, “Method of screening insulin resistance inproving drug” (priority 2002, published 2005).

Key:
[1] = system: promoter region of p68 RNA helicase gene; experiment: Promoter activity of p68 RNA helicase gene, luciferase reporter assay in COS-1 cells; type: cell-based, monkey; details: COS-1 cells co-transfected with pGL3-p68-899 bp or pGL3-p68-1184 bp; pioglitazone final concentration 10 μM; 24 hours; corrected by β-galactosidase activity; FIG. 2
Method: The culture medium was discarded and the cell was washed with phosphate buffered saline(PBS). Per each well, 80 μl each of lysis solution (100 mM potassium phosphate, pH 7.8, 0.2% Triton X-100) was added, for cell lysis. To 20 μl of the cytolytic solution, 100 μl of a luciferase substrate solution (Wako Pure Chemical Co., Ltd.) was added to assay the luminescence with a chemiluminescence meter (Type ML3000; Dynatech Laboratories). Separately, the β-galactosidase activity of the cytolytic solution was assayed with a kit for detecting the β-galactosidase activity (Galacto-Light Plus™ system; TROPIX), and the resulting value was digitized. This was used as the transfection efficiency of introduced gene, to correct the said luciferase activity per each well. Using primers represented by SEQ ID NOS:14 and 15 designed on the basis of the nucleotide sequence of the promoter of p68 RNA helicase gene as previously reported (Rossler, et al., Nucleic Acids Res., Vol. 28, pp. 932-939, 2000) and the human genome DNA sequence (GenBank accession No. AC009994) and additionally using the human genome DNA (Clontech) as template for PCR [using DNA polymerase (LA Taq DNA polymerase; Takara Shuzo Co., Ltd.), and at 98° C. (5 minutes) and subsequently 35 times of a cycle of 96° C. […] After culturing for 48 hours, the luminescence of luciferase was assayed in the same manner as in Example 2. […]

p68 RNA helicase = experiment: Expression level of mRNA of p68 RNA helicase during differentiation of 3T3L1 cell into fat cell (real-time PCR); type: cell-based; details: 3T3L1 cell in differentiation culture medium; pioglitazone final concentration 1 μM; 24 hours after addition; corrected on G3PDH expression
Method: To a culture plate (60-mm diameter; Asahi Technoglass), 2 ml of the minimum essential culture medium of DMEM (Gibco) supplemented with 10% fetal bovine serum (Sigma) was added and a culture cell 3T3L1 cell was cultured therein to become confluence. Subsequently, the culture medium was replaced with a differentiation culture medium [the minimum essential culture medium DMEM (Gibco) supplemented with insulin (at a final concentration of 10 μg/ml; Sigma), dexamethazone (at a final concentration of […]; Sigma) and 3-isobutyl-1-[…] (at a final concentration of […]; Sigma)], to which pioglitazone (at a final concentration of 1 μM) as an agent for improving insulin resistance was added or was not added. Then, it was examined as to whether or not the expression level of p68 RNA helicase changed between the culture medium with or without adding pioglitazone. 24 hours after pioglitazone addition, the cell was harvested, to extract RNA using an RNA extraction reagent (ISOGEN; Wako Pure Chemical Co., Ltd.) for reverse transcription with a reverse transcription reaction kit (Thermoscript RT-PCR System; Invitrogen). […]

CCc1ccc(CCOc2ccc(CC3SC(=O)NC3=O)cc2)nc1 (single isomer, unassigned; (+)) [pioglitazone, (+)-5-[4-[2-(5-ethyl-2-pyridinyl)ethoxy]benzyl]-2,4-thiazolidinedione]
promoter activity of p68 RNA helicase gene (luciferase activity) [1]: activated
expression level of p68 RNA helicase compared with the culture medium without pioglitazone addition (p68 RNA helicase): about 1.7 fold
